Laboratory results taken from article PMC6044955 (ACS Omega, 2017).

Assays:
Format in all cases: cell-based
[1] = molecular target: hα3β2 nAChR (Homo sapiens, UniProt P17787+P32297)
[2] = molecular target: hα3β4 nAChR (Homo sapiens, UniProt P30926+P32297)
[3] = molecular target: hα9α10 nAChR (Homo sapiens, UniProt Q9GZZ6+Q9UGM1)
hα9α10 nAChR, sequence (Q9UGM1 26-479 limits assumed): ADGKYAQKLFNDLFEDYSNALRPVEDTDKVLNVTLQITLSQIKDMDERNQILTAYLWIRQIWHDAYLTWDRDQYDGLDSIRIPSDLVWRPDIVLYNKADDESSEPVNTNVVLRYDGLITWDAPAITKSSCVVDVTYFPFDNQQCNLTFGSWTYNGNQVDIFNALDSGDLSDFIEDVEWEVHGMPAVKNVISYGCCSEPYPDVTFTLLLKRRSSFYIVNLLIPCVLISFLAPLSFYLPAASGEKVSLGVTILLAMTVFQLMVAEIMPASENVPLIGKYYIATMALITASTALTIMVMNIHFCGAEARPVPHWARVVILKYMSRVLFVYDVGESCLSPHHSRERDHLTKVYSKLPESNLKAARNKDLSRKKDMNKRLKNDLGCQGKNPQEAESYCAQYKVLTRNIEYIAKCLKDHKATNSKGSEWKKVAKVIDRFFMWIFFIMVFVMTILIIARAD
hα9α10 nAChR, sequence (Q9GZZ6 25-450): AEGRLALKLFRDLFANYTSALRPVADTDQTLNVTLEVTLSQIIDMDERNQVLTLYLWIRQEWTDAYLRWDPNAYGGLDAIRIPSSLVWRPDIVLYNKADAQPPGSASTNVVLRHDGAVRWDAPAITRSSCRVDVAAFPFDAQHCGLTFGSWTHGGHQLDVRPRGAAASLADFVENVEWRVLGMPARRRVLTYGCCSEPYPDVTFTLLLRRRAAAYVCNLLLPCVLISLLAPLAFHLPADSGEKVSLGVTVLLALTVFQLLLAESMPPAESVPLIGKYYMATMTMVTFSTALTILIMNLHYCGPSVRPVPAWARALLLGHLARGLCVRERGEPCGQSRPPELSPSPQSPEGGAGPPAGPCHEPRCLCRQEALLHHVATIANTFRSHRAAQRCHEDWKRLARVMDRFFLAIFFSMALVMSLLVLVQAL

hα3β2 nAChR, sequence (P32297 32-505): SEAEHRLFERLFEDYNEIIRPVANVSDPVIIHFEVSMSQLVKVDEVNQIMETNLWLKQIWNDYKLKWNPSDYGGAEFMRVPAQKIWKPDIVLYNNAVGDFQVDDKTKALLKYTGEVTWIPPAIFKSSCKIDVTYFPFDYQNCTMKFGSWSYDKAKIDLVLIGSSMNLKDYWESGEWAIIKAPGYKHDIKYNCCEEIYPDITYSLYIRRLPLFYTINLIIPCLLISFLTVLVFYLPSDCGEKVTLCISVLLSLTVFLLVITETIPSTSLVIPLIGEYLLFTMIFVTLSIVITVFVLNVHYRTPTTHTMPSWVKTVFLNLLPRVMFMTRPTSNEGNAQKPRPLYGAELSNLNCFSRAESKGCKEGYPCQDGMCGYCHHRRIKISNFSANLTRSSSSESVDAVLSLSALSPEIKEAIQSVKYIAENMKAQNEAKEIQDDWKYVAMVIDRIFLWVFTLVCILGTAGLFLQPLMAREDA
hα3β2 nAChR, sequence (P17787 26-502): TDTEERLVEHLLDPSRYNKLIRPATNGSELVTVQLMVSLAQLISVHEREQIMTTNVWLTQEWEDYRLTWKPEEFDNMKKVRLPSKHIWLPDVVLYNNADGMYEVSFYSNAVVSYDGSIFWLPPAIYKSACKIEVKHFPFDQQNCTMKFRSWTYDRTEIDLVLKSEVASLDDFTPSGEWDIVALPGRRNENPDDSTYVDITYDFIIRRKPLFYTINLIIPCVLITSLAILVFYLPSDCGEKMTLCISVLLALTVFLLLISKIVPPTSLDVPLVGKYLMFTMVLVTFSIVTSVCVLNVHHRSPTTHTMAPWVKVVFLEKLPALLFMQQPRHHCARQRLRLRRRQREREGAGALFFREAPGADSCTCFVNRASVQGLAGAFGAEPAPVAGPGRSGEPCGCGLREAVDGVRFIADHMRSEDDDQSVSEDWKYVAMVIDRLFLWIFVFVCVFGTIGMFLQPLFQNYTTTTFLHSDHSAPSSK
hα3β4 nAChR, sequence (P32297 32-505): as the sequence (P32297 32-505) above
hα3β4 nAChR, sequence (P30926 22-498): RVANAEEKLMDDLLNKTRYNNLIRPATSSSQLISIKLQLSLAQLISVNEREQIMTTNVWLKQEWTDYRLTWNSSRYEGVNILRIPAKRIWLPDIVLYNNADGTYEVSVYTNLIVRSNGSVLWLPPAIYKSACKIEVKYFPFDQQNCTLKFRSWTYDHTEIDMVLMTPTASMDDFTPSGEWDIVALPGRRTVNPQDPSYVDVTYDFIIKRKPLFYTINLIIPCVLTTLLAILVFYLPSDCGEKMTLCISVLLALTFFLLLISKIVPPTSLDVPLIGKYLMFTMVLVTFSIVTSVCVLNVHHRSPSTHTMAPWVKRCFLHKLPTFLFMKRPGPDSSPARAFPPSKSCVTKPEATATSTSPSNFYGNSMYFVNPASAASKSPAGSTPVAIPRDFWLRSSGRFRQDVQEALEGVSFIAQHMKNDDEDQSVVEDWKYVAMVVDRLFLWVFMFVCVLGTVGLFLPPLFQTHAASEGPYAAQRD

Substance	Inhibition of the ACh-evoked current amplitude at hα3β2 nAChR [1]	Inhibition of the ACh-evoked current amplitude at hα3β4 nAChR [2]	Inhibition of ACh-evoked current at hα3β2 nAChR [1]	Inhibition of ACh-evoked current at hα9α10 nAChR [3]
α-conotoxin BuIA	> 90%	> 90%	–	–
α-conotoxin Vc1.1	–	–	complete inhibition	complete inhibition
